Data from patent US12390441B2, “Immunomodulating o-het/aryl azalides” (Zoetis Services LLC, priority 2020, dated 2025).
Read-outs that look alike come from different tables or passages of the source. Marks after values point to notes of the source that are not given here.

What was measured:
[1] = system: S. aureus (29213 ATCC); test: In-vitro MIC model (CLSI broth micro-dilution); format: cell-based
[2] = system: M. haemolytica; test: In-vitro MIC model (CLSI broth micro-dilution); format: cell-based, Mannheimia haemolytica; settings: for MIC: Mannheimia haemolytica, read-out: Comparative MIC
[3] = system: P. multocida 46572; test: In vivo mouse lung infection challenge model (murine); design: species or system CD-1 female mice; settings: 46572, sc, 20 mg/kg, 240 h
Description: The challenge organism was P. multocida 46572. Target challenge concentration was 5×10^2 CFU/mouse. Isolated colonies from overnight growth (37° C. with 5% CO2) on trypticase soy agar (TSA II) blood plates were transferred to room temperature Brain Heart Infusion Broth (BHIB). The broth culture was incubated 3.5-4 hours to approximately mid-log phase of growth, as measured by forward light scatter at 600 nm (OD600, 0.200). The culture was centrifuged to collect the bacterial pellet. The pellet was re-suspended in BHIB and adjusted to provide an approximate concentration of 2.7 log^10 colony forming units (CFU) in 0.04 mL at the highest concentration. The challenge inoculum concentration was confirmed by serial dilutions of the inoculum for CFU enumeration. On Day −5, CD-1 female mice were received. Mice were given standard rodent diet and water ad libitum. On Day 0, bacterial inoculum (0.04 mL) was administered to each mouse (n=36) intranasally. Compounds of the invention were dosed at 20 mg/kg (0.1 mL) in a buffered (˜pH 5.4) propylene glycol, monothioglycerol and water solution by subcutaneous injection. Animals were observed from Days 1-10. The study was terminated on Day 10. In addition, some treatment groups were sampled at 6, 24, and 48 hours post bacterial challenge for RNA sequence analysis of lung tissue.
The murine efficacy model (P. multocida challenge) was optimized, and the treatment group size was powered to be able to observe statistically significant improvement of survival to expected ranges for immunomodulatory compounds. The experimental design was a randomized complete block design. Mice were individually identified and treatment groups comingled within a cage, with every treatment group equally represented across cages. Mortality was the primary variable. Mortality data was analyzed using a generalized mixed model with fixed effect of treatment and random effect of block. Survival time was also analyzed using the SAS PHREG (survival analysis) procedure to examine whether there were significant differences between treatment groups and the control group. Numerous compounds of the invention and M9 (positive control) were tested in this model at a dose of 20 mg/kg (Table 3). Typical percent survival for no treatment control is in the range of 0-20% based on study to study variation in challenge inoculum and rate of infection. […] Mouse survival for M9 was about 90-100%, further supporting its residual antibacterial properties against the bacterial strain. Harmonized survival accounts for % survival relative to vehicle (“−” control) and M9 (“+” control)) survival data (Table 3).

[4] = system: P. multocida; test: In-vitro MIC model (CLSI broth micro-dilution); format: cell-based, Pasteurella multocida; settings: for MIC: Pasteurella multocida, read-out: Comparative MIC
[5] = system: IL-1β; test: Whole blood assay, LPS stimulation, MSD cytokine detection; format: cell-based, bovine; settings: fresh whole bovine blood, LPS stimulation; drug concentration giving overstimulation (OS) of IL-1β
[6] = system: TNF-α; test: as above; format: cell-based; settings: fresh whole bovine blood
[7] = system: IL-6; test: as above; format: cell-based; settings: Bos taurus, fresh whole bovine blood
[8] = system: BRD pathogens, M. haemolytica and P. multocida; test: In-vitro MIC model, BRD pathogen screening panel; format: cell-based, Mannheimia haemolytica; Pasteurella multocida; settings: at least one BRD strain
[9] = system: Lung bacteria isolated at necropsy; test: MIC of recovered isolates, natural bovine respiratory disease study
Description: The primary clinical endpoint for efficacy was treatment failure/success over a 14-day observation period. Clinically normal beef calves (150-200 kg) at moderate risk for BRD were dosed on arrival to the feedlot. Animals (N=114/group) received saline (T01), 5 mg/kg M9 (T02) or 10 mg/kg M9 (T03); or Zactran (T04). […] Bacterial isolates were collected at necropsy and MICs were evaluated (Table 4).

[10] = M. haemolytica 46571, bovine efficacy challenge strain
[11] = P. multocida 46572, murine efficacy challenge strain
[12] = H. somni (25) lung isolates at necropsy
[13] = M. haemolytica (116) lung isolates at necropsy
[14] = P. multocida (33) lung isolates at necropsy

| Compound | % Survival [3] | IL-1ß OS of LPS [5] | IC50 ([6]; Bos taurus) | IC50 [7] | Comparative MIC [1] | Comparative MIC ([2]; M. haemolytica 12726) | Comparative MIC ([2]; M. haemolytica 33396) | Comparative MIC [2, 10] | Comparative MIC ([4]; P. multocida 43137) | Comparative MIC [4, 11] | other results |
| --- | --- | --- | --- | --- | --- | --- | --- | --- | --- | --- | --- |
| CC[C@H]1OC(=O)[C@H](C)[C@@H](O)[C@H](C)[C@@H](O[C@@H]2O[C@H](C)C[C@H](NC)[C@H]2Oc2ccc(OC)cc2)[C@](C)(O)C[C@@H](C)CN[C@H](C)[C@@H](O)[C@]1(C)O [Example B-6, (2R,3S,4R,5R,8R,10R,11R,12S,13S,14R)-2-ethyl-3,4,10,13-tetrahydroxy-11-(((2S,3R,4S,6R)-3-(4-methoxyphenoxy)-6-methyl-4-(methylamino)tetrahydro-2H-pyran-2-yl)oxy)-3,5,8,10,12,14-hexamethyl-1-oxa-6-azacyclopentadecan-15-one] | 1% |  |  |  |  |  |  |  |  |  | MIC ([1]; Staphylococcus aureus, read-out: Comparative MIC): > 64 µg/mL; MIC ([2]; M. haemolytica 12726): > 64 µg/mL; MIC ([2]; M. haemolytica 33396): > 64 µg/mL; MIC [2, 10]: > 64 µg/mL; MIC ([4]; P. multocida 43137): > 64 µg/mL; MIC [4, 11]: > 64 µg/mL |
| CC[C@H]1OC(=O)[C@H](C)[C@@H](O)[C@H](C)[C@@H](O[C@@H]2O[C@H](C)C[C@H](N(C)C(=O)N(C)c3ccccc3)[C@H]2Oc2ccccc2)[C@](C)(O)C[C@@H](C)CN[C@H](C)[C@@H](O)[C@]1(C)O [Example C-2, 1-((2S,3R,4S,6R)-2-(((2R,3S,4R,5R,8R,10R,11R,12S, 13S, 14R)-2-ethyl-3,4,10,13-tetrahydroxy-3,5,8,10,12,14-hexamethyl-15-oxo-1-oxa-6-azacyclopentadecan-11-yl)oxy)-6-methyl-3-phenoxytetrahydro-2H-pyran-4-yl)-1,3-dimethyl-3-phenylurea] | 54% | 16 µM | 27 µM | 32 µM |  |  |  |  |  |  |  |
| CC[C@H]1OC(=O)[C@H](C)[C@@H](O)[C@H](C)[C@@H](O[C@@H]2O[C@H](C)C[C@H](N(C)C(=O)N(C)C3CC3)[C@H]2Oc2ccccc2)[C@](C)(O)C[C@@H](C)CN(C)[C@H](C)[C@@H](O)[C@]1(C)O [Example C-27] |  |  |  |  | >64 µg/mL | >64 µg/mL | >64 µg/mL | >64 µg/mL | >64 µg/mL | >64 µg/mL |  |
| CCCNC[C@]1(O)[C@H](C)O[C@@H](O[C@H]2[C@H](C)[C@@H](O[C@@H]3O[C@H](C)C[C@H](NC)[C@H]3Oc3ccc(F)cc3)[C@](C)(O)C[C@@H](C)CN[C@H](C)[C@@H](O)[C@](C)(O)[C@@H](CC)OC(=O)[C@@H]2C)C[C@@]1(C)OC [Example E-1, (2R,3S,4R,5R,8R,10R,11R,12S,13S,14R)-2-ethyl-11-(((2S,3R,4S,6R)-3-(4-fluorophenoxy)-6-methyl-4-(methylamino)tetrahydro-2H-pyran-2-yl)oxy)-3,4,10-trihydroxy-13-(((2R,4R,5S,6S)-5-hydroxy-4-methoxy-4,6-dimethyl-5-((propylamino)methyl)tetrahydro-2H-pyran-2-yl)oxy)-3,5,8,10,12,14-hexamethyl-1-oxa-6-azacyclopentadecan-15-one] | 57% | 32 µM | 6 µM |  |  |  |  |  |  |  | MIC flag at the example number (Table E) [8]: E-1* (MIC ≤ 64 μg/mL for at least one BRD strain) |
| CCCNC[C@]1(O)[C@H](C)O[C@@H](O[C@H]2[C@H](C)[C@@H](O[C@@H]3O[C@H](C)C[C@H](NC)[C@H]3Oc3ccc(OC)cc3)[C@](C)(O)C[C@@H](C)CN[C@H](C)[C@@H](O)[C@](C)(O)[C@@H](CC)OC(=O)[C@@H]2C)C[C@@]1(C)OC [Example E-2, (2R,3S,4R,5R,8R,10R,11R,12S,13S,14R)-2-ethyl-3,4,10-trihydroxy-13-(((2R,4R,5S,6S)-5-hydroxy-4-methoxy-4,6-dimethyl-5-((propylamino)methyl)tetrahydro-2H-pyran-2-yl)oxy)-11-(((2S,3R,4S,6R)-3-(4-methoxyphenoxy)-6-methyl-4-(methylamino)tetrahydro-2H-pyran-2-yl)oxy)-3,5,8,10,12,14-hexamethyl-1-oxa-6-azacyclopentadecan-15-one] | 36% | 32 µM | 6 µM |  |  |  |  |  |  |  | MIC flag at the example number (Table E) [8]: E-2* (MIC ≤ 64 μg/mL for at least one BRD strain) |
| CCCNC[C@]1(O)[C@H](C)O[C@@H](O[C@H]2[C@H](C)[C@@H](O[C@@H]3O[C@H](C)C[C@H](NC)[C@H]3Oc3ccc(Cl)nc3)[C@](C)(O)C[C@@H](C)CN[C@H](C)[C@@H](O)[C@](C)(O)[C@@H](CC)OC(=O)[C@@H]2C)C[C@@]1(C)OC [Example E-8, (2R,3S,4R,5R,8R,10R,11R,12S,13S,14R)-11-(((2S,3R,4S,6R)-3-((6-chloropyridin-3-yl)oxy)-6-methyl-4-(methylamino)tetrahydro-2H-pyran-2-yl)oxy)-2-ethyl-3,4,10-trihydroxy-13-(((2R,4R,5S,6S)-5-hydroxy-4-methoxy-4,6-dimethyl-5-((propylamino)methyl)tetrahydro-2H-pyran-2-yl)oxy)-3,5,8,10,12,14-hexamethyl-1-oxa-6-azacyclopentadecan-15-one] | 36% | 100 µM | 25 µM | 110 µM |  |  |  |  |  |  |  |
| CCCNC[C@]1(O)[C@H](C)O[C@@H](O[C@H]2[C@H](C)[C@@H](O[C@@H]3O[C@H](C)C[C@H](NC)[C@H]3Oc3cccc(OCC)c3)[C@](C)(O)C[C@@H](C)CN[C@H](C)[C@@H](O)[C@](C)(O)[C@@H](CC)OC(=O)[C@@H]2C)C[C@@]1(C)OC [Example E-13] |  | 40 µM |  |  | >64 µg/mL | >64 µg/mL | >64 µg/mL | >64 µg/mL | >64 µg/mL | >64 µg/mL | IC50 [6]: 30 µM |
| CCCNC[C@]1(O)[C@H](C)O[C@@H](O[C@H]2[C@H](C)[C@@H](O[C@@H]3O[C@H](C)C[C@H](NC)[C@H]3Oc3ccc(C#N)cc3)[C@](C)(O)C[C@@H](C)CN[C@H](C)[C@@H](O)[C@](C)(O)[C@@H](CC)OC(=O)[C@@H]2C)C[C@@]1(C)OC [Example E-111, 4-(((2S,3R,4S,6R)-2-(((2R,3S,4R,5R,8R,10R,11R,12S,13S,14R)-2-ethyl-3,4,10-trihydroxy-13-(((2R,4R,5S,6S)-5-hydroxy-4-methoxy-4,6-dimethyl-5-((propylamino)methyl)tetrahydro-2H-pyran-2-yl)oxy)-3,5,8,10,12,14-hexamethyl-15-oxo-1-oxa-6-azacyclopentadecan-11-yl)oxy)-6-methyl-4-(methylamino)tetrahydro-2H-pyran-3-yl)oxy)benzonitrile] | 22% | 80 µM | 9 µM | 90 µM |  |  |  |  |  |  |  |
| CCCNC[C@]1(O)[C@H](C)O[C@@H](O[C@H]2[C@H](C)[C@@H](O[C@@H]3O[C@H](C)C[C@H](N(C)C(=O)N4CCN(CC)CC4)[C@H]3Oc3ccc(OC)c(OCC)c3)[C@](C)(O)C[C@@H](C)CN[C@H](C)[C@@H](O)[C@](C)(O)[C@@H](CC)OC(=O)[C@@H]2C)C[C@@]1(C)OC [Example G-3] |  |  |  |  | >64 µg/mL | >64 µg/mL | >64 µg/mL | >64 µg/mL | >64 µg/mL | >64 µg/mL |  |
| CCCN1C[C@H](C)[C@@H](O)[C@](C)(O)[C@@H](CC)OC(=O)[C@H](C)[C@@H](O[C@H]2C[C@@](C)(OC)[C@@H](O)[C@H](C)O2)[C@H](C)[C@@H](O[C@@H]2O[C@H](C)C[C@H](N(C)C)[C@H]2O)[C@](C)(O)C[C@H]1C [gamithromycin (Zactran)] |  |  |  |  |  |  |  |  |  |  | MIC50 [9, 12]: 0.25 µg/mL; MIC90 [9, 12]: 2 µg/mL; MIC50 [9, 13]: 1 µg/mL; MIC90 [9, 13]: >64 µg/mL; MIC50 [9, 14]: 1 µg/mL; MIC90 [9, 14]: >64 µg/mL |
